Reference: patent US9198900B2, “Treatment of peritoneal injury using JAK inhibitors” (Los Angeles Biomedical Research Institute at Harbor-UCLA …, priority 2011, dated 2015)

Key:
[1] = system: human peritoneal mesothelial cells; details: cultured human peritoneal mesothelial cells; cited from earlier work
Met-5A cells = assay: Cleaved caspase-3 Western blot after exposure to peritoneal dialysis fluid; assay type: cell-based; details: 250 nM P6, 24 h; heated PDF, F-PDF, Low GDP-FPDF; FIG. 5N
Method: Methods: Met-5A cells were incubated with heated peritoneal dialysis fluid (PDF), filtered (F-PDF) and Low GDP-FPDF with or without 250 nM JAK inhibitor (Jaki) P6, and cells were harvested at 24 h for measuring cleaved caspase-3 by Western blot as an indication of cell death. 100 μg of cell lysate was separated on a 8-16% SDS polyacrylamide gel. Proteins were transferred onto a nitrocellulose membrane, blocked with 5% BSA in TBST and incubated with primary anti-cleaved caspase-3 antibody (1; 1000, Cell Signaling) overnight. After incubation with a HRP conjugated anti-rabbit antibody (1:1500, GE Healthcare UK Ltd, Piscataway, N.J.), protein bands were visualized by chemiluminiscence (Thermo Scientific). GAPDH serves as an internal control.

peritoneal membrane = assay: Rat PD with 4.25% Dianeal (biPDF), peritoneal histology; assay type: in vivo; details: rats undergoing PD with bioincompatible PDF (biPDF), compared to placebo
From the text: In rats, 10 days of PD with 4.25% Dianeal induced mesothelial cell reactive hyperplasia, fibrosis, inflammation, and JAK1 phosphorylation, all of which are attenuated by a JAK1/2 inhibitor. Visceral and parietal peritoneum respond to biPDF differently^33, 88, so only like tissues were compared across treatments.

JAK/STAT signaling = assay: Mesothelial cell exposure to heated PDF in vitro (immunoblot); assay type: cell-based, human
Method: Mesothelial cell exposure to heated PDF in vitro activated JAK/STAT signaling and induced the STAT-associated protein periostin. Heat-sterilization of PDF generates GDPs. A commercially available immortalized human mesothelial cell line was cultured in standard medium, then switched to control medium or heat-sterilized PDF (30:70, medium:PDF)×4 hrs. Heated PDF induced STAT1 phosphorylation, and the pan-JAKi P6 attenuated this (immunoblot doublet, FIG. 1A). After 24 hrs, P6 also attenuated the secretion of the injurious STAT-associated protein periostin into the medium (immunoblot triplet, FIG. 1B). Five characteristics of periostin make it an attractive marker of Pbarrier injury. 1) Periostin is a marker and mediator for the adoption of a mesenchymal phenotype by injured or transformed epithelial cells^73-75. 2) It participates in fibrous healing^76. Others show periostin in the Pbarrier of patients with fibrosis and encapsulating peritoneal sclerosis (Braun et al, ASN poster, 2011). 3) Periostin supports neovascularization^77. 4) It has a bidirectional regulatory relationship with TGF-β^78. 5) It's promoter region has STAT1 and 5 binding sites (www|.|sabiosciences|.|com/chipqpersearch.php?species_id=0&nfactor=n&ninfo=n&ngene=n&B2=Search&src=genecard&factor=Over+200+TF&gene=POSTN). Thus, we can use periostin to affirm JAK/STAT signaling and mesothelial dedifferentiation.

Compound	leptin-induced TGFβ synthesis [1]	caspase-3 cleavage induced by PDF (indication of cell death) (Met-5A cells)	structural integrity of the peritoneal membrane (peritoneal membrane)	secretion of the STAT-associated protein periostin into the medium (JAK/STAT signaling; heated PDF, after 24 hrs, FIG. 1B)	STAT1 phosphorylation induced by heated PDF (JAK/STAT signaling; immortalized human mesothelial cell line, heat-sterilized PDF (30:70, medium:PDF) x 4 hrs, FIG. 1A)
N#C/C(=C\c1ccc(O)c(O)c1)C(=O)NCc1ccccc1 [AG-490]	abolished	–	–	–	–
CC(C)(C)c1nc2c3cc[nH]c(=O)c3c3cc(F)ccc3c2[nH]1 [P6]	–	reduced	preserved	attenuated	attenuated
